The record followed here is patent publication EP1206941A1, “ACTIVITY PO[…] CHEMOTHERAPEUTICS, ANTICANCER COMPOSITIONS AND METHOD FOR POTENTIATING THE ACTIVITY OF CHEMOTHERAPEUTICS” (HISAMITSU PHARMACEUTICAL CO. INC., priority 1999, dated 2001).

The assay deals with Murine melanoma B16 · BL6 cells. In words: Assay for apoptosis-inducing activity (TNF bioassay, crystal violet staining). The assay is classed as cell-based. The following applies: for potentiation of apoptosis-inducing activity: ED50 alone versus ED50 in the presence of peptide (SEQ ID NO:2) 50 µg/ml; for EC50: Mus musculus, B16-BL6, 19 h, 19 hours, Probit method, read-out: ED50 (apoptosis-inducing activity). As to the method:
The potentiating effects on the apoptosis-inducing activity of chemotherapeutic agents were evaluated based on whether or not the apoptosis-inducing activity of anticancer agents of the apoptosis-inducing type would be affected by the combined use of the aforementioned synthetic peptide.
Specifically, the apoptosis-inducing activity of anticancer agents of three kinds of apoptosis-inducing type agents was compared between the presence of the peptide and the absence of the peptide. Determination of the apoptosis-inducing activity was carried out according to TNF bioassay (K. Hirano et al., J. Biochem., 105, 120, 1989). The details are provided below.
A 96-well was coated with human plasma fibronectin at a concentration of 5 µg/ml (prepared according to the method of Fukai et al., J. Biol. Chem., 266, 8807, 1991) and was subjected to blocking with bovine serum albumin (Sigma), after which it was suspended in a serum-free culture: the culture was a mixture of Dulbeccos Modified Eagle Medium and Ham F12 medium at a volume ratio of 1:1 and will be referred to as DMEM/Ham medium hereafter (Nissui Pharmaceutical Co. Ltd.). Murine melanoma B16 · BL6 cells were inoculated onto the plate at 2x10^4 cells/well. After cell adhesion and distention were confirmed by cultivating the cells at 37 °C and under 5% CO2 atmosphere for 2 hours, the culture supernatant was removed and a mixed solution comprising a chemotherapeutic agent and the peptide was added thereto. Cultivation was conducted for 19 hours. The peptide was prepared to give a final concentration of 50 µg/ml, and the chemotherapeutic agents were dissolved in DMEM/Ham medium at a variety of concentrations. As controls, only the peptide and only the chemotherapeutic agent at the same concentrations as those described were added. Cultivation was conducted for 19 hours. In Example 9 doxorubicin (abbreviated as DOX) was used; in Example 10 VCR was used; and in Example 11 AcD was used. DOX was also purchased from Sigma. After cultivation, the above mixed solution was removed and exchanged with a DMEM/HaM medium containing 10% bovine fetal serum (URH Biosciences) for further cultivation overnight. After fixing with 5% formaldehyde (Wako Pure Chemical Industries Ltd.), the cells having undergone apoptosis were removed through washing and the cells adhered to the plate were stained with a 0.5% crystal violet solution. Excessive dye was washed out with water. After lyzing the cells with 1% SDS and extracting the dye, absorbance at a wavelength of 595 nm was measured with a microplate reader (Spectra Rainbow Thermo; Wako Pure Chemical Industries Ltd.).

The mark [1] stands for this setting: chemotherapeutic agent used alone.
[2] abbreviates: in the presence of peptide (SEQ ID NO:2) 50 µg/ml.

Where two headings read alike, the source gives them in different places. *1 amine or outer side, *2 acyl side, *3 side chain or, on linkers, in order; H or OH if unused. Where a SMILES comes first, the peptide text is derived from it. Bridges are numbered along the chain shown (N, C = ends). Roman numbers before positions name the chains, in order. [ ]: non-standard residue; d: D form. Actinocin(9to1) = Cc1c2oc3c(C)ccc(C(=O)[*:1])c3nc-2c(C(=O)[*:2])c(N)c1=O; NMeV = CN[C@H](C(=O)O)C(C)C; Sar = CNCC(=O)O

For the molecule `CC[C@]1(O)C[C@H]2CN(CCc3c([nH]c4ccccc34)[C@@](C(=O)OC)(c3cc4c(cc3OC)N(C=O)[C@H]3[C@@](O)(C(=O)OC)[C@H](OC(C)=O)[C@]5(CC)C=CCN6CC[C@]43[C@@H]65)C2)C1` [VCR, vincristin], the “potentiation of apoptosis-inducing activity” value (shortened to “potentiation”) is listed as ~27,000 fold. For the same molecule, under setting [1], the EC50 was 111 µg/mL. Also, the EC50 under setting [2] turned out to be 0.0036 µg/mL.
`Cc1c2oc3c(C)ccc(C(=O)N[C@@H]4C(=O)N[C@H](C(C)C)C(=O)N5CCC[C@H]5C(=O)N(C)CC(=O)N(C)[C@@H](C(C)C)C(=O)O[C@@H]4C)c3nc-2c(C(=O)N[C@@H]2C(=O)N[C@H](C(C)C)C(=O)N3CCC[C@H]3C(=O)N(C)CC(=O)N(C)[C@@H](C(C)C)C(=O)O[C@@H]2C)c(N)c1=O` [AcD, actinomycin D] (I: T[dV]P[Sar][NMeV] / II: T[dV]P[Sar][NMeV]; ester I:1-I:C, II:1-II:C; linker I:N-II:N via Actinocin(9to1)): the “potentiation” value is ~40,000 fold. Also, the EC50 under setting [1] was determined as 763 nM. Also, under setting [2], the EC50 is 0.0145 nM.
Take `COc1cccc2c1C(=O)c1c(O)c3c(c(O)c1C2=O)C[C@@](O)(C(=O)CO)C[C@@H]3O[C@H]1C[C@H](N)[C@H](O)[C@H](C)O1` [DOX, doxorubicin]: the “potentiation” value is listed as around 7.6 fold. The EC50 under setting [1] stood at 0.293 µg/mL. Also, the EC50 under setting [2] came out at 0.039 µg/mL.
